# Experimental data reported in patent US20200187502A1, “MICROBIOCIDAL OXADIAZOLE DERIVATIVES” (SYNGENTA PARTICIPATIONS AG, priority 2017, published 2020).
# Columns and labels:
# [1] = tested on: Glomerella lacenarium (Colletotrichum lacenarium); assay: Fungicidal activity, liquid culture, cucumber preventative (anthracnose); assay type: cell-based; settings: 20 ppm in the applied formulation, liquid culture in PDB, inhibition of growth measured photometrically 3 to 4 days after application, compared to untreated control, read-out: disease control
# Protocol: Mycelia fragments or conidia suspensions of a fungus prepared either freshly from liquid cultures of the fungus or from cryogenic storage, are directly mixed into nutrient broth. DMSO solutions of the test compound (max. 10 mg/ml) are diluted with 0.025% Tween20 by a factor of 50 and 10 μl of this solution is pipetted into a microtiter plate (96-well format). The nutrient broth containing the fungal spores/mycelia fragments is then added to give an end concentration of the tested compound. The test plates are incubated in the dark at 24° C. and 96% relative humidity. The inhibition of fungal growth is determined photometrically after 2 to 7 days, depending on the pathosystem, and percent antifungal activity relative to the untreated check is calculated.
# Conidia of the fungus from cryogenic storage are directly mixed into nutrient broth (PDB—potato dextrose broth). After placing a (DMSO) solution of test compound into a microtiter plate (96-well format), the nutrient broth containing the fungal spores is added. The test plates are incubated at 24° C. and the inhibition of growth is measured photometrically 3 to 4 days after application.
# The following compounds at 20 ppm in the applied formulation give at least 80% disease control in this test when compared to untreated control under the same conditions, which show extensive disease development.
# [2] = tested on: Puccinia recondita f. Sp. Tritici; assay: Fungicidal activity, wheat leaf disc preventative (brown rust); assay type: in vivo; settings: foliar, 200 ppm in the applied formulation, wheat leaf segments cv. Kanzler, compared to untreated control, 7 to 9 days after application, read-out: disease control
# Protocol: Leaf disks or leaf segments of various plant species are cut from plants grown in a greenhouse. The cut leaf disks or segments are placed in multiwell plates (24-well format) onto water agar. The leaf disks are sprayed with a test solution before (preventative) or after (curative) inoculation. Compounds to be tested are prepared as DMSO solutions (max. 10 mg/ml) which are diluted to the appropriate concentration with 0.025% Tween20 just before spraying. The inoculated leaf disks or segments are incubated under defined conditions (temperature, relative humidity, light, etc.) according to the respective test system. A single evaluation of disease level is carried out 3 to 14 days after inoculation, depending on the pathosystem. Percent disease control relative to the untreated check leaf disks or segments is then calculated.
# Wheat leaf segments cv. Kanzler were placed on agar in multiwell plates (24-well format) and sprayed with the formulated test compound diluted in water. The leaf disks were inoculated with a spore suspension of the fungus 1 day after application. The inoculated leaf segments were incubated at 19° C. and 75% relative humidity (rh) under a light regime of 12 hours light/12 hours darkness in a climate cabinet and the activity of a compound was assessed as percent disease control compared to untreated when an appropriate level of disease damage appears in untreated check leaf segments (7 to 9 days after application).
# The following compounds at 200 ppm in the applied formulation give at least 80% disease control in this test when compared to untreated control leaf disks under the same conditions, which show extensive disease development.
SMILES,inhibition of growth at 20 ppm [1],pest or weed control at 200 ppm [2]
"CON(Cc1ccc(-c2noc(C(F)(F)F)n2)s1)S(=O)(=O)c1ccn(C)n1 [Compound 1.33, N-methoxy-1-methyl-N-[[5-[5-(trifluoromethyl)-1,2,4-oxadiazol-3-yl]-2-thienyl]methyl]pyrazole-3-sulfonamide]",≥ 80%,≥ 80%
"CON(Cc1ccc(-c2noc(C(F)(F)F)n2)s1)S(=O)(=O)C1CC1 [Compound 1.37, N-methoxy-N-[[5-[5-(trifluoromethyl)-1,2,4-oxadiazol-3-yl]-2-thienyl]methyl]cyclopropanesulfonamide]",≥ 80%,≥ 80%
"CON(Cc1ccc(-c2noc(C(F)(F)F)n2)s1)S(=O)(=O)N(C)C [Compound 1.43, N-(dimethylsulfamoyl)-N-methoxy-1-[5-[5-(trifluoromethyl)-1,2,4-oxadiazol-3-yl]-2-thienyl]methanamine]",≥ 80%,≥ 80%
"COCC(=O)N(C)Cc1ccc(-c2noc(C(F)(F)F)n2)s1 [Compound 4.32, 2-methoxy-N-methyl-N-[[5-[5-(trifluoromethyl)-1,2,4-oxadiazol-3-yl]-2-thienyl]methyl]acetamide]",≥ 80%,≥ 80%
"O=C(CC(F)(F)F)N(Cc1ccc(-c2noc(C(F)(F)F)n2)s1)C1CC1 [Compound 4.60, N-cyclopropyl-3,3,3-trifluoro-N-[[5-[5-(trifluoromethyl)-1,2,4-oxadiazol-3-yl]-2-thienyl]methyl]propanamide]",≥ 80%,≥ 80%
"CC(=O)N(Cc1ccc(-c2noc(C(F)(F)F)n2)s1)C1CC1 [Compound 4.61, N-cyclopropyl-N-[[5-[5-(trifluoromethyl)-1,2,4-oxadiazol-3-yl]-2-thienyl]methyl]acetamide]",≥ 80%,≥ 80%
"CC(=O)N(Cc1ccc(-c2noc(C(F)(F)F)n2)s1)OCC(F)F [Compound 4.69, N-(2,2-difluoroethoxy)-N-[[5-[5-(trifluoromethyl)-1,2,4-oxadiazol-3-yl]-2-thienyl]methyl]acetamide]",≥ 80%,≥ 80%
"CN(Cc1ccc(-c2noc(C(F)(F)F)n2)s1)C(=O)c1ccccc1Cl [Compound 5.17, 2-chloro-N-methyl-N-[[5-[5-(trifluoromethyl)-1,2,4-oxadiazol-3-yl]-2-thienyl]methyl]benzamide]",≥ 80%,≥ 80%
"CC(C)N(Cc1ccc(-c2noc(C(F)(F)F)n2)s1)C(=O)c1ccccc1Cl [Compound 5.26, 2-chloro-N-isopropyl-N-[[5-[5-(trifluoromethyl)-1,2,4-oxadiazol-3-yl]-2-thienyl]methyl]benzamide]",≥ 80%,≥ 80%
"O=C(C1CCC1)N(Cc1ccc(-c2noc(C(F)(F)F)n2)s1)C1CC1 [Compound 5.38, N-cyclopropyl-N-[[5-[5-(trifluoromethyl)-1,2,4-oxadiazol-3-yl]-2-thienyl]methyl]cyclobutanecarboxamide]",≥ 80%,≥ 80%
"O=C(CC1CC1)N(Cc1ccc(-c2noc(C(F)(F)F)n2)s1)OCC(F)F [Compound 5.45, 2-cyclopropyl-N-(2,2-difluoroethoxy)-N-[[5-[5-(trifluoromethyl)-1,2,4-oxadiazol-3-yl]-2-thienyl]methyl]acetamide]",≥ 80%,≥ 80%
"O=C(C1CCOC1)N(Cc1ccc(-c2noc(C(F)(F)F)n2)s1)OCC(F)F (centres unmarked) [Compound 5.46, N-(2,2-difluoroethoxy)-N-[[5-[5-(trifluoromethyl)-1,2,4-oxadiazol-3-yl]-2-thienyl]methyl]tetrahydrofuran-3-carboxamide]",≥ 80%,≥ 80%
"O=C(C1CCC1)N(Cc1ccc(-c2noc(C(F)(F)F)n2)s1)OCC(F)F [Compound 5.47, N-(2,2-difluoroethoxy)-N-[[5-[5-(trifluoromethyl)-1,2,4-oxadiazol-3-yl]-2-thienyl]methyl]cyclobutanecarboxamide]",≥ 80%,≥ 80%
"O=C(C1CCCO1)N(Cc1ccc(-c2noc(C(F)(F)F)n2)s1)OCC(F)F (centres unmarked) [Compound 5.49, N-(2,2-difluoroethoxy)-N-[[5-[5-(trifluoromethyl)-1,2,4-oxadiazol-3-yl)-2-thienyl]methyl]tetrahydrofuran-2-carboxamide]",≥ 80%,≥ 80%
"O=C(N(Cc1ccc(-c2noc(C(F)(F)F)n2)s1)C1CC1)N(CC(F)F)C1CC1 [Compound 5.60, 1,3-dicyclopropyl-1-(2,2-difluoroethyl)-3-[[5-[5-(trifluoromethyl)-1,2,4-oxadiazol-3-yl]-2-thienyl]methyl]urea]",≥ 80%,≥ 80%
"CS(=O)(=O)N(Cc1ccc(-c2noc(C(F)(F)F)n2)s1)C1CC1 [Compound 6.1, N-cyclopropyl-N-[[5-[5-(trifluoromethyl)-1,2,4-oxadiazol-3-yl]-2-thienyl]methyl]methanesulfonamide]",≥ 80%,≥ 80%
"CN(C)S(=O)(=O)N(Cc1ccc(-c2noc(C(F)(F)F)n2)s1)C1CC1 [Compound 6.2, N-(dimethylsulfamoyl)-N-[[5-[5-(trifluoromethyl)-1,2,4-oxadiazol-3-yl]-2-thienyl]methyl]cyclopropanamine]",≥ 80%,≥ 80%
"CCN(Cc1ccc(-c2noc(C(F)(F)F)n2)s1)S(=O)(=O)Cc1ccccc1 [Compound 6.13, N-ethyl-1-phenyl-N-[[5-[5-(trifluoromethyl)-1,2,4-oxadiazol-3-yl]-2-thienyl]methyl]methanesulfonamide]",≥ 80%,≥ 80%
"CCN(Cc1ccc(-c2noc(C(F)(F)F)n2)s1)S(=O)(=O)C1CC1 [Compound 6.19, N-ethyl-N-[[5-[5-(trifluoromethyl)-1,2,4-oxadiazol-3-yl]-2-thienyl]methyl]cyclopropanesulfonamide]",≥ 80%,≥ 80%
"CCS(=O)(=O)N(C)Cc1ccc(-c2noc(C(F)(F)F)n2)s1 [Compound 6.25, N-methyl-N-[[5-[5-(trifluoromethyl)-1,2,4-oxadiazol-3-yl]-2-thienyl]methyl]ethanesulfonamide]",≥ 80%,≥ 80%
"CN(C)S(=O)(=O)N(C)Cc1ccc(-c2noc(C(F)(F)F)n2)s1 [Compound 6.29, N-(dimethylsulfamoyl)-N-methyl-1-[5-[5-(trifluoromethyl)-1,2,4-oxadiazol-3-yl]-2-thienyl]methanamine]",≥ 80%,≥ 80%
"CN(Cc1ccc(-c2noc(C(F)(F)F)n2)s1)S(=O)(=O)C1CC1 [Compound 6.30, N-methyl-N-[[5-[5-(trifluoromethyl)-1,2,4-oxadiazol-3-yl]-2-thienyl]methyl]cyclopropanesulfonamide]",≥ 80%,≥ 80%
"CCCS(=O)(=O)N(C)Cc1ccc(-c2noc(C(F)(F)F)n2)s1 [Compound 6.31, N-methyl-N-[[5-[5-(trifluoromethyl)-1,2,4-oxadiazol-3-yl]-2-thienyl]methyl]propane-1-sulfonamide]",≥ 80%,≥ 80%
"COCCS(=O)(=O)N(Cc1ccc(-c2noc(C(F)(F)F)n2)s1)C1CC1 [Compound 6.32, N-cyclopropyl-2-methoxy-N-[[5-[5-(trifluoromethyl)-1,2,4-oxadiazol-3-yl]-2-thienyl]methyl]ethanesulfonamide]",≥ 80%,≥ 80%
"O=S(=O)(Cc1ccccc1)N(Cc1ccc(-c2noc(C(F)(F)F)n2)s1)C1CC1 [Compound 6.33, N-cyclopropyl-1-phenyl-N-[[5-[5-(trifluoromethyl)-1,2,4-oxadiazol-3-yl]-2-thienyl]methyl]methanesulfonamide]",≥ 80%,≥ 80%
